Patent publication US10729723B2, “Method for inducing cell reprogramming, and method for producing pluripotent cells” (NATIONAL UNIVERSITY CORPORATION KUMAMOTO UNIVERSITY, priority 2014, dated 2020)

How the values were obtained:
HDF cells [1] = assay: influence of endocytosis inhibitor on cell-cluster formation by Lactobacillus 70S ribosome fraction; type: cell-based, Human; conditions: 70S ribosome fraction 0.5 μg/50 μl/well, HDF cells 20,000 cells, cultured 2 days
Description: (§1) In the presence of an endocytosis inhibitor shown in the following Table, the cell-cluster forming ability was examined using the Lactobacillus 70S ribosome fraction prepared in Example 6. The 70S ribosome fraction was placed into a 96-well plate (0.5 μg/50 μl/well), HDF cells (20,000 cells/100 μl) were added, and each inhibitor (50 μl) was added. The cells were cultured in a CO2 incubator for 2 days, and the number of the formed cell-clusters was measured. The inhibitor was used with the concentration shown in Table being the standard concentration (concentration “5” in FIG. 9). Accordingly, for example, in the case of CP, the concentration “5” is 10 μM, and the concentration “10” is 20 μM. In addition, the MTT assay (measurement of cell death by colorimetric method) was conducted.

HDF cells [2] = assay: MTT assay (measurement of cell death by colorimetric method); type: cell-based; conditions: HDF cells with 70S ribosome fraction, 2 days
Description: as §1

Compound | number of the formed cell-clusters in the presence of inhibitor (HDF cells [1]) | toxicity of inhibitor, considered cause of decreased cell-cluster number (MTT assay, cell survival ratio) (HDF cells [2])
Methyl-β-cyclodextrin [MC] | increased concentration-dependently | –
CN(C)CCCN1c2ccccc2Sc2ccc(Cl)cc21 [CP, Chlorpromazine] | decreased | –
C[C@@H]1[C@H](O)[C@@H](C)/C=C/C=C/CC/C=C/C=C/C=C/C=C/C(O[C@H]2O[C@H](C)[C@@H](O)[C@H](N)[C@@H]2O)CC2O[C@](O)(CC(O)C(O)CCC(O)CC(O)CC(O)CC(=O)O[C@H]1C)CC(O)C2C(=O)O (stereo partly shown) [NY, Nystatin] | decreased | toxicity
